Columns and labels:
[1] = system: duplex Alexa fluor 546 dye-labeled-DNA template and AF647-C6-dG6P; assay: Stopped-flow measurements of tpol (nucleotide incorporation kinetics); assay type: biochemical; settings: 330 nM polymerase, 100 nM template/primer duplex, 7 μM AF647-C6-dG6P, 2 mM MnCl2; tpol = 1/kpol
Procedure: The kinetics of nucleotide incorporation by B103 (exo-) (SEQ ID NO:5) and an H370R mutant (SEQ ID NO:3) DNA polymerases were measured in an Applied Photophysics SX20 stopped-flow spectrometer by monitoring changes in fluorescence from a duplex Alexa fluor 546 dye-labeled-DNA template following the mixing of the enzyme-DNA complex with dye-labeled nucleotides (AF647-C6-dG6P) in the reaction buffer containing 50 mM Tris-HCl, pH 7.5, 50 mM NaCl, 4 mM DTT, 0.2% BSA, and 2 mM MnCl2. The reactions included 330 nM recombinant DNA polymerase, 100 nM template/primer duplex, and 7 μM labeled nucleotides.
The averaged (5 traces) stopped-flow fluorescence traces (>1.5 ms) were fitted with a double exponential equation (1) to extrapolate the rates of the nucleotide binding and product release, Fluorescence=A1*e^−k^1^*t+A2*e^−k^pol^*t+C (equation 1) where A1 and A2 represent corresponding fluorescence amplitudes, C is an offset constant, and k1 and kpol are the observed rate constants for the fast and slow phases of the fluorescence transition, respectively. The dye-labeled nucleotides comprise terminal-phosphate-labeled nucleotides having an alkyl linker with a functional amine group attached to the dye. The stopped-flow techniques for measuring tpol (1/kpol) followed the techniques described by M P Roettger (2008 Biochemistry 47:9718-9727; M. Bakhtina 2009 Biochemistry 48:3197-320). 2) B103 Polymerase: Stopped-Flow Measurements of t−1

[2] = system: [enzyme⋅DNA⋅labeled nucleotide] ternary complex (AF647-C6-dG6P); assay: Stopped-flow measurements of t−1 (nucleotide dissociation from ternary complex); assay type: binding; settings: ternary complex mixed with 50 μM cognate non-labeled dNTP, 2 mM MnCl2; t−1 = 1/k−1
Procedure: The rate of the nucleotide dissociation (k−1) from the ternary complex of [enzyme⋅DNA⋅nucleotide] was measured in an Applied Photophysics SX20 stopped-flow spectrometer by monitoring changes […] a duplex Alexa fluor 546 dye-labeled-DNA template following the mixing of the [enzyme⋅DNA⋅labeled nucleotide] ternary complex with 50 μM cognate non-labeled deoxynucleoside triphosphate in a buffer containing 50 mM Tris-HCl (pH 7.5), 50 mM NaCl, 4 mM DTT, 0.2% BSA, and 2 mM MnCl2.
The ternary complexes were prepared using: 330 nM polymerase, 100 nM template/primer duplex, and 7 μM terminal phosphate-labeled nucleotides (AF647-C6-dG6P).
The averaged stopped-flow fluorescence traces (>1.5 msec) were fitted with a single exponential equation (2) to extrapolate the rate of the nucleotide dissociation (k−1) from the [enzyme⋅DNA⋅nucleotide] ternary complex. Fluorescence=A1*e^−k^−1^*t+C (equation 2) where A1 represents the corresponding fluorescence amplitude, C is an offset constant, and k−1 and the observed rate constants for the fluorescence transition. The stopped-flow techniques for measuring t−1 (1/k−1) followed the techniques described by M. Bakhtina (2009 Biochemistry 48:3197-3208).

template = template extension activity (DNA extension assay); assay type: biochemical; settings: stock unconjugated polymerase
Procedure: A 150 nM master mix solution of a labeled hairpin oligonucleotide 221 was prepared by diluting the appropriate quantity of a 50 μM stock solution with extension buffer (50 mM TRIS, pH 8, 50 mM NaCl, 10 mM MgCl2). 450 μl of a master mix was prepared for each sample being tested.
The conjugate being tested was diluted in 450 μl of the master mix such that the final concentration of the conjugate is in the range of 10 nM to 50 nM. The positive control samples of free PKAΦ29 were similarly diluted. The sample solution was deposited in four microtiter plate wells, at 100 μl/well.
The microtiter plate was placed in a plate reader (Molecular Devices, SpectraMax M5) and set up to monitor the fluorescence as function of time (excitation 490 nm, emission 535 nm, cutoff filter 515 nm). Just prior to starting the plate reader, 2 μl of 1 mM dATP was added to each of two microtiter wells to start the extension reaction. The other two microtiter wells with sample represent no extension controls. The plate was read for an hour or until the samples reached saturation. […]

[3] = solubility of core nanoparticles in solvents
Excerpt: The solubility of the aliquoted samples was observed. […] Six of the aliquoted samples were centrifuged and the resulting clear, colorless supernatants were discarded.

Row | Compound | t−1 [2] | tpol [1] | DNA extension assay (template) | solubility in solvents [3]
1 | stock HP1-B104-H370R (exo-) polymerase: stock His-tagged HP1-B103 H370R exo- polymerase (SEQ ID NO:3) | – | – | 0.29 base/sec/enzyme | –
2 | H370R: H370R mutant B103 DNA polymerase (SEQ ID NO:3) | 43 | 17 | – | –
3 | CCOC(=O)CCCCCP(=O)(O)O [6-ethoxy-6-oxohexylphosphonic acid] | – | – | – | not soluble in hexane

Now from value to compound, other results behind:

Row | t−1 [2] | Compound | tpol [1] | DNA extension assay (template) | solubility in solvents [3]
4 | 16 | B103 (exo-): B103 (exo-) DNA polymerase (SEQ ID NO:5) | 14 | – | –
5 | 20 | K509Y: B103 polymerase with amino acid substitution K509Y | 10 | – | –

— patent US11008612B2, “Methods and apparatus for single molecule sequencing using energy transfer detection” (Life Technologies Corporation, priority 2009, dated 2021)
